Laboratory results reported in US8741854B2, “Compositions and methods for feeding poultry” (Bioenergy, Inc., priority 2009, dated 2014).

Test system: male chicks of a commercial breed, "Cobb 500"
Assay: D-ribose supplementation of broiler chicks raised on a challenged rapid growth regimen
Type: in vivo, chicken (broiler chicks)
Details: D-ribose in drinking water, about 200 mg/kg body weight/day

O=C[C@H](O)[C@H](O)[C@H](O)CO [D-ribose]
observed cardiomyopathic incidences (days 0 to 43, challenged environment, approximately 5200 feet elevation, control 27.6%): 15.1%
average weight and feed conversion versus control (birds weighed days 35 and 43, FIG. 1): slightly better in the control group, but the differences were not statistically significant
